“And” between values parts separate entries of the source, which are not always exact repeats. Identical values can stand only once. Toxic doses and inconclusive results are not listed. No stated cut-off is given here; in the data, active means T/C of 150% or more; inactive means T/C below 125%.
System: L1210 leukemia ip in BDF1 mice, survival T/C
Assay: NCI In Vivo Anticancer Drug Screen. Data for tumor model L1210 Leukemia (intraperitoneal) in B6D2F1 (BDF1) mice
Conditions: endpoint: mean survival time, higher = longer survival
How it was run: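 Ratio derived from survival: compound-dosed mice over vehicle-dosed mice, all bearing a transplantable tumor.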

[1] = dose: 25.0 mg/kg/injection, schedule: Q01DX009 (ip), vehicle: Klucel (hydroxypropylcellulose) (HPC)
[2] = dose: 100.0 mg/kg/injection, schedule: Q01DX009 (ip), vehicle: Klucel (hydroxypropylcellulose) (HPC)
[3] = dose: 100.0 mg/kg/injection, schedule: Q01DX009 (ip), vehicle: saline
[4] = dose: 100.0 mg/kg/injection, schedule: Q04DX003 (ip), vehicle: saline
[5] = dose: 200.0 mg/kg/injection, schedule: Q04DX003 (ip), vehicle: saline
[6] = dose: 400.0 mg/kg/injection, schedule: Q04DX003 (ip), vehicle: saline
[7] = dose: 100.0 mg/kg/injection, schedule: Q04DX003 (ip), vehicle: saline with Tween-80
[8] = dose: 200.0 mg/kg/injection, schedule: Q04DX003 (ip), vehicle: saline with Tween-80
[9] = dose: 400.0 mg/kg/injection, schedule: Q04DX003 (ip), vehicle: saline with Tween-80
[10] = dose: 50.0 mg/kg/injection, schedule: Q01DX009 (ip), vehicle: saline
[11] = dose: 100.0 mg/kg/injection, schedule: Q01DX001 (ip), vehicle: saline
[12] = dose: 200.0 mg/kg/injection, schedule: Q01DX001 (ip), vehicle: saline
[13] = dose: 400.0 mg/kg/injection, schedule: Q01DX001 (ip), vehicle: saline

Measured: T/C

O=C1/C(=C/c2ccccn2)COc2ccccc21
inactive: dose: 100.0 mg/kg/injection, schedule: Q04DX003 (ip), vehicle: carboxymethylcellulose (CMC) 93 % of control | dose: 200.0 mg/kg/injection, schedule: Q04DX003 (ip), vehicle: carboxymethylcellulose (CMC) 95 % of control | dose: 400.0 mg/kg/injection, schedule: Q04DX003 (ip), vehicle: carboxymethylcellulose (CMC) 103 % of control

COc1cc(/C=C/C(N)=O)cc(OC)c1OC
inactive: [1] 104 % of control | dose: 50.0 mg/kg/injection, schedule: Q01DX009 (ip), vehicle: Klucel (hydroxypropylcellulose) (HPC) 114 % of control | [2] 101 % of control | dose: 200.0 mg/kg/injection, schedule: Q01DX009 (ip), vehicle: Klucel (hydroxypropylcellulose) (HPC) 104 % of control | dose: 400.0 mg/kg/injection, schedule: Q01DX009 (ip), vehicle: Klucel (hydroxypropylcellulose) (HPC) 102 % of control

OC1CCCSC1 (stereo unspecified)
inactive: [3] 102 % of control | [4] 96 % of control | dose: 200.0 mg/kg/injection, schedule: Q01DX009 (ip), vehicle: saline 98 % of control | [5] 100 % of control | dose: 400.0 mg/kg/injection, schedule: Q01DX009 (ip), vehicle: saline 98 % of control | [6] 89 % of control

Cc1cc(N(CCCOS(C)(=O)=O)CCCOS(C)(=O)=O)ccc1C=Nc1cccc(Cl)c1
inactive: [7] 97 % of control | [8] 98 % of control | [9] 92 % of control

CN(C)/C(N)=N/N
inactive: dose: 15.0 mg/kg/injection, schedule: Q01DX Z (ip), vehicle: methylcellulose (MC) 113 % of control | dose: 30.0 mg/kg/injection, schedule: Q01DX Z (ip), vehicle: methylcellulose (MC) 109 % of control | dose: 60.0 mg/kg/injection, schedule: Q01DX Z (ip), vehicle: methylcellulose (MC) 100 % of control | dose: 120.0 mg/kg/injection, schedule: Q01DX Z (ip), vehicle: methylcellulose (MC) 103 % of control | dose: 125.0 mg/kg/injection, schedule: Q01DX Z (oral), vehicle: methylcellulose (MC) 90 % of control | dose: 240.0 mg/kg/injection, schedule: Q01DX Z (ip), vehicle: methylcellulose (MC) 101 % of control | dose: 250.0 mg/kg/injection, schedule: Q01DX Z (oral), vehicle: methylcellulose (MC) 101 % of control | dose: 375.0 mg/kg/injection, schedule: Q01DX Z (ip), vehicle: methylcellulose (MC) 110 % of control | dose: 480.0 mg/kg/injection, schedule: Q01DX Z (ip), vehicle: methylcellulose (MC) 107 % of control

CN(C)/C=C/c1nnc([N+](=O)[O-])s1
inactive: dose: 62.0 mg/kg/injection, schedule: Q04DX003 (ip), vehicle: Klucel (hydroxypropylcellulose) (HPC) 100 % of control | dose: 123.0 mg/kg/injection, schedule: Q04DX003 (ip), vehicle: Klucel (hydroxypropylcellulose) (HPC) 98 % of control | dose: 256.0 mg/kg/injection, schedule: Q04DX003 (ip), vehicle: Klucel (hydroxypropylcellulose) (HPC) 98 % of control | dose: 512.0 mg/kg/injection, schedule: Q04DX003 (ip), vehicle: Klucel (hydroxypropylcellulose) (HPC) 100 % of control

CC1(C)CCN1Cc1ccccc1
inactive: dose: 12.0 mg/kg/injection, schedule: Q01DX001 (ip), vehicle: saline 98 % of control | dose: 12.0 mg/kg/injection, schedule: Q04DX003 (ip), vehicle: saline 95 % of control | dose: 12.5 mg/kg/injection, schedule: Q01DX009 (ip), vehicle: saline 95 % of control | dose: 25.0 mg/kg/injection, schedule: Q01DX001 (ip), vehicle: saline 100 % of control | dose: 25.0 mg/kg/injection, schedule: Q01DX009 (ip), vehicle: saline 101 % of control | dose: 25.0 mg/kg/injection, schedule: Q04DX003 (ip), vehicle: saline 101 % of control | dose: 50.0 mg/kg/injection, schedule: Q01DX001 (ip), vehicle: saline 96 % of control | [10] 123 % of control | dose: 50.0 mg/kg/injection, schedule: Q04DX003 (ip), vehicle: saline 96 % of control

CCCCCCCCCCCCOC(=N)N1CCOCC1
inactive: dose: 11.1 mg/kg/injection, schedule: Q01DX Z (ip), vehicle: saline 102 % of control | dose: 16.6 mg/kg/injection, schedule: Q01DX Z (ip), vehicle: saline 102 % of control | dose: 25.0 mg/kg/injection, schedule: Q01DX Z (ip), vehicle: saline 98 % of control

CNC[C@@H](O)c1ccc(O)c(O)c1
inactive: dose: 0.1 mg/kg/injection, schedule: Q01DX009 (ip), vehicle: saline 94 % of control | dose: 0.2 mg/kg/injection, schedule: Q01DX001 (ip), vehicle: saline 112 % of control | dose: 0.2 mg/kg/injection, schedule: Q01DX009 (ip), vehicle: saline 109 % of control | dose: 0.31 mg/kg/injection, schedule: Q01DX009 (ip), vehicle: saline 111 % of control | dose: 0.4 mg/kg/injection, schedule: Q01DX001 (ip), vehicle: saline 106 % of control | dose: 0.4 mg/kg/injection, schedule: Q01DX009 (ip), vehicle: saline 102 % of control | dose: 0.4 mg/kg/injection, schedule: Q04DX003 (ip), vehicle: saline 108 % of control | dose: 0.59 mg/kg/injection, schedule: Q01DX009 (ip), vehicle: saline 95 % of control | dose: 0.62 mg/kg/injection, schedule: Q01DX009 (ip), vehicle: saline 98 % of control | dose: 0.8 mg/kg/injection, schedule: Q01DX001 (ip), vehicle: saline 104 % of control | dose: 0.8 mg/kg/injection, schedule: Q04DX003 (ip), vehicle: saline 113 % of control | dose: 0.9 mg/kg/injection, schedule: Q01DX009 (ip), vehicle: saline 97 % of control | dose: 1.1 mg/kg/injection, schedule: Q01DX001 (ip), vehicle: saline 96 % of control | dose: 1.25 mg/kg/injection, schedule: Q01DX009 (ip), vehicle: saline 101 % of control | dose: 1.3 mg/kg/injection, schedule: Q01DX009 (ip), vehicle: saline 97 % of control | dose: 1.6 mg/kg/injection, schedule: Q04DX003 (ip), vehicle: saline 98 % of control | dose: 2.3 mg/kg/injection, schedule: Q04DX003 (ip), vehicle: saline 103 % of control | dose: 2.5 mg/kg/injection, schedule: Q01DX009 (ip), vehicle: saline 102 % of control | dose: 3.6 mg/kg/injection, schedule: Q04DX003 (ip), vehicle: saline 109 % of control

O=C(O)C(F)(F)C(F)(F)F.[Ag]
inactive: dose: 75.0 mg/kg/injection, schedule: Q01DX001 (ip), vehicle: acetone 87 % of control

CC(=O)Oc1c(OC(C)=O)c(C=O)c2c(OC(C)=O)c(-c3c(C)cc4c(C(C)C)c(OC(C)=O)c(OC(C)=O)c(C=O)c4c3OC(C)=O)c(C)cc2c1C(C)C
inactive: dose: 6.25 mg/kg/injection, schedule: Q01DX009 (ip), vehicle: Klucel (hydroxypropylcellulose) (HPC) 102 % of control | dose: 12.5 mg/kg/injection, schedule: Q01DX009 (ip), vehicle: Klucel (hydroxypropylcellulose) (HPC) 97 % of control | [1] 100 % of control and 105 % of control | dose: 25.0 mg/kg/injection, schedule: Q04DX003 (ip), vehicle: Klucel (hydroxypropylcellulose) (HPC) 93 % of control | dose: 50.0 mg/kg/injection, schedule: Q04DX003 (ip), vehicle: Klucel (hydroxypropylcellulose) (HPC) 90 % of control | dose: 100.0 mg/kg/injection, schedule: Q04DX003 (ip), vehicle: Klucel (hydroxypropylcellulose) (HPC) 95 % of control and 104 % of control

COc1ccc2c(c1)CNC1c3cc(OC)c(O)cc3CC21 (stereo unspecified)
inactive: [8] 88 % of control

Nc1ccc2c(c1)Cc1ccccc1-2
inactive: [7] 101 % of control | [8] 101 % of control

CCC1([N+](=O)[O-])COP(=O)(OC(=O)c2ccco2)OC1 (stereo unspecified)
inactive: [11] 97 % of control | [12] 96 % of control | [13] 96 % of control

Cc1ccc(N)c2cccnc12
inactive: [2] 93 % of control

CC(C)n1cc2c(N)ncnc2n1
inactive: [10] 117 % of control | [11] 96 % of control | [3] 104 % of control | [4] 103 % of control | [12] 104 % of control | [5] 108 % of control | [13] 100 % of control | [6] 100 % of control

COc1cc(/C=N\Nc2ccccc2[N+](=O)[O-])cc(OC)c1OC
inactive: [7] 86 % of control | [8] 91 % of control | [9] 89 % of control
